This note sets out measurements from PMC4207410, “Clicked Cinnamic/Caffeic Esters and Amides as Radical Scavengers and 5-Lipoxygenase Inhibitors” (International Journal of Medicinal Chemistry, 2014).

Molecules are shown by their SMILES.

Broadly, the IC50 is the concentration at which inhibition is half-maximal. As a reminder, the melting point is the temperature of the solid-liquid transition. By inhibition is commonly meant the share of the control response that was lost under treatment.

The nature of data set [1]: Antiradical activity assay (DPPH radical scavenging). Conditions: DPPH in ethanol, 30 min in the dark at room temperature, absorbance 520 nm; mean [SD] of 2 experiments. The procedure:
The radical scavenging activity of test compounds was measured as previously described using 2,2-diphenyl-1-picrylhydrazyl (DPPH) as a stable radical with slight modifications. Particular care was taken in the preparation of the control (DPPH reagent + ethanol as a diluent without test compounds). Controls with O.D. of 0.350-0.360 at 520 nm were deemed as acceptable to avoid variations in IC50 calculations. 1 mL of DPPH in ethanol ([…]) was mixed with 1 mL of the test compounds at the indicated concentrations or their diluent (ethanol). Each mixture was then shaken vigorously and held in the dark for 30 min at room temperature. The absorbance of DPPH at 520 nm was then measured. The radical scavenging activity was expressed in terms of % inhibition of DPPH absorbance: (1) % Inhibition=[(Acontrol−Atest)/(Acontrol)] ×100, where A control is the absorbance of the control (DPPH solution without test compound) and A test is the absorbance of the test sample (DPPH solution plus compound). Data are expressed as means ± SD of 2 independent experiments, each performed in triplicate (Table 1). IC50 values were calculated from a sigmoidal concentration-response curve fitting model with a variable slope on GraphPad Prism 5 software (GraphPad software, San Diego, California).
Radical scavenging activities of analogous cinnamoyl esters 8a–h, cinnamoyl amides 9a–h, caffeoyl esters 15a–h, and caffeoyl amides 16a–h were assayed using 2,2-diphenyl-1-picrylhydrazyl (DPPH) as a stable radical and are expressed as IC50 concentrations in Table 1.
Background: DPPH is a stable violet radical that fades when it is reduced.

Data set [2] has as its target T1, 5-LO (Homo sapiens, UniProt P09917).
T1 sequence (P09917 1-674): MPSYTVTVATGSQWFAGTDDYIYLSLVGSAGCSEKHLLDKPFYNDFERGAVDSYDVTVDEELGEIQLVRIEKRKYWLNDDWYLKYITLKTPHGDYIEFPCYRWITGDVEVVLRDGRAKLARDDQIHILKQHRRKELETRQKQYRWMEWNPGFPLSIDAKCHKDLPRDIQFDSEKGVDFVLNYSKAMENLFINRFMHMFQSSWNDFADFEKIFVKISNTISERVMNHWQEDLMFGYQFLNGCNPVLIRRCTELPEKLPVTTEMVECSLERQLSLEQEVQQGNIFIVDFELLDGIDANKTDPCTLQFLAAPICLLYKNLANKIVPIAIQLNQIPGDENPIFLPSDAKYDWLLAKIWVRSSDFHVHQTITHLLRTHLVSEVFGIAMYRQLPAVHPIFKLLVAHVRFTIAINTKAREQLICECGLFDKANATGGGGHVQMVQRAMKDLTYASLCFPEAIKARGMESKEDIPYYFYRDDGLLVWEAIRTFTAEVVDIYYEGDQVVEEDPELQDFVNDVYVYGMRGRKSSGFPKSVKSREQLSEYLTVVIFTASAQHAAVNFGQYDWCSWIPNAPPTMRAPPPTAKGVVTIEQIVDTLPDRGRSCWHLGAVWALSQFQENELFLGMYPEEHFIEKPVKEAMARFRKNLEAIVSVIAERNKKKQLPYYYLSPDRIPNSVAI
Kind of data set: 5-LO products biosynthesis assay in thapsigargin-stimulated human PMNL. Format: cell-based. More on the design: 5-LO is highly expressed in PMNL; endogenous in cells; host or cells: human PMNL from peripheral blood. The note with it: for potency relative to Zileuton (1) in human PMNL: comparison of IC50 values, thapsigargin-stimulated human PMNL; for IC50: read-out: Human PMNL IC50 (μM) [SD]. The procedure:
Human PMNL were prepared from peripheral blood as described and were suspended in HBSS containing 1.6 mM CaCl2 (10^7 cells/mL) and preincubated with compounds for 5 min at 37°C in the presence of 1 U/mL of adenosine deaminase (Sigma-Aldrich, Oakville, ON, Canada). Cells were then stimulated for 15 min at 37°C with 1 μM thapsigargin (Sigma-Aldrich). Reactions were stopped by the addition of 0.5 volume of cold MeOH : CH3CN (1 : 1) and 50 ng of PGB2 as internal standard and samples were stored at −20°C until processing on octadecyl (C18) columns and RP-HPLC analysis as indicated above. Data are expressed as means ± SEM of 3 independent experiments, each performed in duplicate (Figures 4 and 5).
5-LO is highly expressed in PMNL and these cells are important producers of LTB4 [28, 32].

In data set [3] the target is T1, 5-LO. In words: 5-LO products biosynthesis assay in whole HEK293 cells stably transfected with 5-LO and FLAP. It is filed as cell-based. More on the design: expressed in transfected cells. Conditions: for potency relative to Zileuton (1) in HEK293 cells: comparison of IC50 values. From the text:
HEK293 cells were cotransfected with a pcDNA3.1 vector expressing 5-LO and a pBUDCE4.1 vector expressing 5-LO activating protein (FLAP) using Polyfect reagent (QIAGEN, Mississauga, ON, Canada) according to the manufacturer's protocol. Stable transfections of HEK293 cells were obtained following cell culture in the presence of Geneticin and Zeocin (Invitrogen, Burlington, ON, Canada). The resulting stable double transfectants were propagated in culture and aliquots were frozen. Once thawed for a series of experiments, each aliquot of cells is cultured for a maximum of 6 weeks before being discarded.
For cell stimulation of 5-LO products, transfected HEK293 cells were collected following trypsinization, washed and the cell pellet was resuspended in Hank's balanced salt solution (HBSS) (Lonza, Walkersville, MD) containing 1.6 mM CaCl2 at a concentration of 5 × 10^5 cells mL^−1. Cells were preincubated with each compound at the indicated concentration for 5 min at 37°C. Cells were then stimulated for 15 minutes at 37°C with the addition of 10 μM calcium ionophore A23187 (Sigma-Aldrich, Oakville, ON, Canada) and 10 μM arachidonic acid (Cayman Chemical, Ann Arbor, MI). Stimulations were stopped and processed on RP-HPLC as described previously. Data are expressed as means ± SEM of 3 independent experiments, each performed in duplicate (Figures 2 and 3).

For `O=C(/C=C/c1ccc(O)c(O)c1)OCCn1ccnn1` [15a, (E)-2-(1H-1,2,3-Triazol-1-yl)ethyl 3-(3,4-Dihydroxyphenyl)acrylate], the melting point was 196 to 198 °C (dec.). Moreover, the concentration for half-maximal inhibition (IC50) in data set [1] was determined as 9.55 µM. Also, the “5-LO inhibition in stimulated human PMNL (in words)” value on 5-LO [2] (stimulated human PMNL, 1 μM) was “complete loss of inhibition”. Take `O=C(/C=C/c1ccc(O)c(O)c1)NCCn1cc(-c2ccc(F)cc2)nn1` [16g]: the melting point is 226 °C (dec.). For the same compound, in data set [1], half-maximal inhibition (IC50) was put at 12 µM. In addition, at 5-LO [3], the “potency relative to Zileuton (1) in HEK293 cells” value is recorded as “equipotent to Zileuton”. In addition, on 5-LO [3] (whole HEK293 cells, 1 μM), the “5-LO inhibition in whole HEK293 cells (in words)” value was “no significant 5-LO inhibitory activity”. On 5-LO [2], the “potency relative to Zileuton (1) in human PMNL” value was “less active than Zileuton” and the IC50 stood at 8.8 µM. Consider `O=Cc1ccc(-c2cn(CCOC(=O)/C=C/c3ccc(O)c(O)c3)nn2)cc1` [15h], for which the melting point is 220 to 230 °C (dec.). The same compound had an IC50 in data set [1] of 8.85 µM. For the same compound, on 5-LO [2] (stimulated human PMNL, 1 μM), the “5-LO inhibition in stimulated human PMNL (in words)” value is reported as “roughly equipotent with Zileuton”. For the compound `O=C(C=Cc1ccccc1)NCCn1ccnn1` [9a], the melting point lay in the range of 140 to 141 °C. With `O=C(C=Cc1ccccc1)OCCn1ccnn1` [8a, 2-(1H-1,2,3-Triazol-1-yl)ethyl Cinnamate], the melting point is 99 to 100 °C.

In the case of `O=C(/C=C/c1ccc(O)c(O)c1)OCCn1cc(-c2ccccc2)nn1` [15e], the melting point was 193 to 195 °C (dec.). In data set [1], this compound displayed a 50% inhibitory concentration (IC50) of 15.1 µM. The compound `O=Cc1ccc(-c2cn(CCNC(=O)C=Cc3ccccc3)nn2)cc1` [9h] came in with a melting point of 200 to 201 °C.

Turning to `O=C(/C=C/c1ccc(O)c(O)c1)NCCn1cc(C2=CCCCC2)nn1` [16d], the melting point fell in the range of 168 to 169 °C. The same compound displayed a half-inhibitory concentration (IC50) in data set [1] of 11.2 µM. Regarding `O=C(C=Cc1ccccc1)NCCn1cc(-c2ccc(F)cc2)nn1` [9g], the melting point was 193 to 196 °C.

`O=C(C=Cc1ccccc1)OCCn1cc(-c2ccc(F)cc2)nn1` [8g] gave a melting point of 134 to 135 °C. As to `O=C(/C=C/c1ccc(O)c(O)c1)NCCn1cc(-c2ccccc2)nn1` [16e], the melting point was 208 °C (dec.). Moreover, the IC50 in data set [1] was found to be 10.5 µM. As to `Cc1ccc(-c2cn(CCNC(=O)/C=C/c3ccc(O)c(O)c3)nn2)cc1` [16f], the melting point was 220 °C (dec.). The compound also gave an IC50 in data set [1] of 13 µM. For the same compound, the “potency relative to Zileuton (1) in HEK293 cells” value at 5-LO [3] is reported as “equipotent to Zileuton”. Besides, on 5-LO [3] (whole HEK293 cells, 1 μM), the “5-LO inhibition in whole HEK293 cells (in words)” value is on record as “no significant 5-LO inhibitory activity”. For the same compound, on 5-LO [2], the “potency relative to Zileuton (1) in human PMNL” value was “less active than Zileuton” and the IC50 came to 8.2 µM. On to `O=C(C=Cc1ccccc1)OCCn1cc(-c2ccccc2)nn1` [8e], for which the melting point is 122 to 123 °C.

`O=C(C=Cc1ccccc1)OCCn1cc(C2=CCCCC2)nn1` [8d]: the melting point is 101 to 103 °C.

Turning to `O=C(/C=C/c1ccc(O)c(O)c1)OCCn1cc(C2CCCCC2)nn1` [15c], the melting point was 191 °C (dec.). The same compound had an IC50 in data set [1] of 9.3 µM. `O=C(C=Cc1ccccc1)NCCn1cc(-c2ccccc2)nn1` [9e] gave a melting point of 171 to 173 °C. Turning to `CCCc1cn(CCOC(=O)/C=C/c2ccc(O)c(O)c2)nn1` [15b], the melting point was 180 to 181 °C (dec.). Also, half-maximal inhibition in data set [1] (IC50) required 9.37 µM. Take `O=C(/C=C/c1ccc(O)c(O)c1)OCCn1cc(COC(=O)/C=C/c2ccccc2)nn1` [compound 3, reference compound]: in data set [1], the IC50 stood at 12 µM. Further, at 5-LO [2] (stimulated human PMNL, 1 μM), the “5-LO inhibition in stimulated human PMNL (in words)” value is recorded as “roughly equipotent with Zileuton”. In turn, `Cc1ccc(-c2cn(CCOC(=O)C=Cc3ccccc3)nn2)cc1` [8f] returned a melting point of 139 to 140 °C. In the case of `O=C(/C=C/c1ccc(O)c(O)c1)OCCc1ccccc1` [CAPE 2, caffeic acid phenethyl ester, reference compound], inhibition in data set [1] was half-maximal at 16.5 µM (IC50). In addition, the “5-LO products synthesis, % of the control value” on 5-LO [3] (whole HEK293 cells, 1 μM) is listed as “roughly 50%”. Also, the inhibition at 1 µM on 5-LO [3] (whole HEK293 cells, 1 μM, read-out: inhibition of LTs biosynthesis) was roughly 50%; on 5-LO [2] (read-out: inhibition of 5-LO, stimulated human PMNL, 1 μM) it was roughly 75%. Regarding `O=C(C=Cc1ccccc1)OCCn1cc(C2CCCCC2)nn1` [8c], the melting point turned out to be 119 °C. `O=C(/C=C/c1ccc(O)c(O)c1)NCCn1cc(C2CCCCC2)nn1` [16c] had a melting point of 183 to 184 °C. In data set [1], this compound gave an IC50 of 9.87 µM.

As for `CCCc1cn(CCOC(=O)C=Cc2ccccc2)nn1` [8b, 2-(4-Propyl-1H-1,2,3-triazol-1-yl)ethyl Cinnamate], the melting point was 63 to 64 °C.

With `O=Cc1ccc(-c2cn(CCOC(=O)C=Cc3ccccc3)nn2)cc1` [8h], the melting point was in the range of 127 to 128 °C.

Compound `CCCc1cn(CCNC(=O)/C=C/c2ccc(O)c(O)c2)nn1` [16b] displayed a melting point of 163 to 165 °C. In data set [1], this compound showed an IC50 of 12.1 µM. On to `O=C(C=Cc1ccccc1)NCCn1cc(C2CCCCC2)nn1` [9c], for which the melting point lay within 159 to 161 °C.

In turn, `O=C1O[C@H]([C@@H](O)CO)C(O)=C1O` [Ascorbic acid, reference compound] registered a half-maximal inhibitory concentration (IC50) in data set [1] of 75.4 µM.

Regarding `CC(c1cc2ccccc2s1)N(O)C(N)=O` (stereo not shown) [Zileuton 1, Zileuton, reference compound], in data set [1], the IC50 is greater than 100 µM. Besides, the “5-LO inhibition in whole HEK293 cells (in words)” value on 5-LO [3] (whole HEK293 cells, 1 μM) is on record as “little to no activity”. At 5-LO [3] (whole HEK293 cells, 10 μM (not shown)), the inhibition at 10 µM was roughly 25%. For the compound `O=Cc1ccc(-c2cn(CCNC(=O)/C=C/c3ccc(O)c(O)c3)nn2)cc1` [16h], the melting point was 228 to 230 °C (dec.). Also, in data set [1], the midpoint of inhibition, the IC50, lay at 18.1 µM. `O=C(/C=C/c1ccc(O)c(O)c1)OCCn1cc(C2=CCCCC2)nn1` [15d]: the melting point was 219 to 220 °C (dec.). Also, in data set [1], the IC50 was 8.7 µM. Moreover, the “5-LO inhibition in stimulated human PMNL (in words)” value on 5-LO [2] (stimulated human PMNL, 1 μM) is recorded as “roughly equipotent with Zileuton”.

For the compound `O=C(C=Cc1ccccc1)NCCn1cc(C2=CCCCC2)nn1` [9d], the melting point fell in the range of 170 to 171 °C.

`Cc1ccc(-c2cn(CCNC(=O)C=Cc3ccccc3)nn2)cc1` [9f] returned a melting point of 208 °C.

As for `O=C(/C=C/c1ccc(O)c(O)c1)NCCn1ccnn1` [16a], the melting point is 163 to 165 °C. Moreover, in data set [1], the IC50 was found to be 15.4 µM.
